Results from patent US9963456B2, “Pyrrolopyrimidine compound or salt thereof and compositions containing the pyrrolopyrimidine compound or salt thereof” (TAIHO PHARMACEUTICAL CO., LTD., priority 2014, dated 2018).

What was measured:
[1] = target: NAE (heterodimer of APPBP1 and UBA3) (Homo sapiens (Human), UniProt Q8TBC4); assay: Nedd8 conjugation inhibitory activity (AlphaScreen assay); format: biochemical; settings: purified NAE, GST-UBC12, Biotin-Nedd8, ATP
carbonic anhydrase II = carbonic anhydrase II (Homo sapiens (Human), UniProt P00918); assay: Carbonic anhydrase II enzyme activity inhibition (4-NPA esterase activity); format: biochemical; settings: 4-nitrophenyl acetate esterase activity, absorbance at 405 nm

NAE (heterodimer of APPBP1 and UBA3), sequence (Q8TBC4 whole entry): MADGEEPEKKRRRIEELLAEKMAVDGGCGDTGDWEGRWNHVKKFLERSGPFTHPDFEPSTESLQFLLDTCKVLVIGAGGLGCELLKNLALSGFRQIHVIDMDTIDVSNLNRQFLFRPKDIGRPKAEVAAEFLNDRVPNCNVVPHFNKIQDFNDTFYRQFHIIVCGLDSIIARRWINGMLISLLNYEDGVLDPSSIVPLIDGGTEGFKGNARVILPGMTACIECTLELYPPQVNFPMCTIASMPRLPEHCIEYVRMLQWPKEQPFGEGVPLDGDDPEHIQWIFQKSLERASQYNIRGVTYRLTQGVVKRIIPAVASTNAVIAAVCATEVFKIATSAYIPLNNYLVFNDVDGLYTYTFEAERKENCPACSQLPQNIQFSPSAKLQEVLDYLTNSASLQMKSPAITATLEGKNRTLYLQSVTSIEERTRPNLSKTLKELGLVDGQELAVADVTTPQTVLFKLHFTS
NAE (heterodimer of APPBP1 and UBA3), sequence (Q13564 whole entry partner): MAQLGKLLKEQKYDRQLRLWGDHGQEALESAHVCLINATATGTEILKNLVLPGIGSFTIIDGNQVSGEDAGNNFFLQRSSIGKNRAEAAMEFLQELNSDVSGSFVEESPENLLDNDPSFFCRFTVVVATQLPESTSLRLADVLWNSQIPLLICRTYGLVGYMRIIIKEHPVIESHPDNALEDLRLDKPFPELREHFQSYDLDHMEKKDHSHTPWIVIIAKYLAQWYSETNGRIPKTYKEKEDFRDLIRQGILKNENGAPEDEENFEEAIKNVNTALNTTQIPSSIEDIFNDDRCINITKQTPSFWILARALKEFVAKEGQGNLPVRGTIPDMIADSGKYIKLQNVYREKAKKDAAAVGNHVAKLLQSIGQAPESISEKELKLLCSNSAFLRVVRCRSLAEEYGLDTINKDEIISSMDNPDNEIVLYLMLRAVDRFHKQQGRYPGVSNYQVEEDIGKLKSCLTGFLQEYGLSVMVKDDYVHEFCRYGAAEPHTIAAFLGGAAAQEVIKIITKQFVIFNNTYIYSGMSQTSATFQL

For `Cc1ccccc1-c1nc(-c2cn([C@@H]3O[C@H](CNS(N)(=O)=O)[C@@H](O)[C@H]3O)c3ncnc(N)c23)cs1` [Example 2, 4-[4-Amino-7-[(2R,3R,4S,5R)-3,4-dihydroxy-5-[(sulfamoylamino)methyl]tetrahydrofuran-2-yl]pyrrolo[2,3-d]pyrimidin-5-yl]-2-(o-tolyl)thiazole], the IC50 [1] was 0.0071 µM and the IC50 (carbonic anhydrase II) was > 1 µM.
For `Nc1ncnc2c1c(C#Cc1ccc(OCc3ccccc3)cc1)cn2[C@@H]1O[C@H](CNS(N)(=O)=O)[C@@H](O)[C@H]1O` [Example 3, 4-Amino-5-[2-(4-benzyloxyphenyl)ethynyl]-7-[(2R,3R,4S,5R)-3,4-dihydroxy-5-[(sulfamoylamino)methyl]tetrahydrofuran-2-yl]pyrrolo[2,3-d]pyrimidine], the IC50 (carbonic anhydrase II) was > 1 µM.
With `Nc1ncnc2c1c(C#Cc1cccc3ccccc13)cn2[C@@H]1O[C@H](CNS(N)(=O)=O)[C@@H](O)[C@H]1O` [Example 6, 4-Amino-7-[(2R,3R,4S,5R)-3,4-dihydroxy-5-[(sulfamoylamino)methyl]tetrahydrofuran-2-yl]-5-[2-(1-naphthyl)ethynyl]pyrrolo[2,3-d]pyrimidine] the IC50 (carbonic anhydrase II) was > 1 µM.
With `Nc1ncnc2c1c(C#CC1(c3ccccc3)CC1)cn2[C@@H]1O[C@H](CNS(N)(=O)=O)[C@@H](O)[C@H]1O` [Example 10, 4-Amino-7-[(2R,3R,4S,5R)-3,4-dihydroxy-5-[(sulfamoylamino)methyl]tetrahydrofuran-2-yl]-5-[2-(1-phenylcyclopropyl)ethynyl]pyrrolo[2,3-d]pyrimidine] the IC50 [1] was 0.024 µM and the IC50 (carbonic anhydrase II) was > 1 µM.
For `Nc1ncnc2c1c(-c1coc(-c3ccccc3)n1)cn2[C@@H]1O[C@H](CNS(N)(=O)=O)[C@@H](O)[C@H]1O` [Example 12, 4-[4-Amino-7-[(2R,3R,4S,5R)-3,4-dihydroxy-5-[(sulfamoylamino)methyl]tetrahydrofuran-2-yl]pyrrolo[2,3-d]pyrimidin-5-yl]-2-phenyl-oxazol], the IC50 (carbonic anhydrase II) was > 1 µM.
With `Nc1ncnc2c1c(C#Cc1ccccc1OC(F)(F)F)cn2[C@@H]1O[C@H](CNS(N)(=O)=O)[C@@H](O)[C@H]1O` [Example 14, 4-Amino-7-[(2R,3R,4S,5R)-3,4-dihydroxy-5-[(sulfamoylamino)methyl]tetrahydrofuran-2-yl]-5-[2-[2-(trifluoromethoxy)phenyl]ethynyl]pyrrolo[2,3-d]pyrimidine] the IC50 (carbonic anhydrase II) was > 1 µM.
In the case of `Nc1ncnc2c1c(C#CCc1ccccc1F)cn2[C@@H]1O[C@H](CNS(N)(=O)=O)[C@@H](O)[C@H]1O` [Example 36, 4-Amino-7-[(2R,3R,4S,5R)-3,4-dihydroxy-5-[(sulfamoylamino)methyl]tetrahydrofuran-2-yl]-5-[3-(2-fluorophenyl)prop-1-ynyl]pyrrolo[2,3-d]pyrimidine], the IC50 (carbonic anhydrase II) is reported as > 1 µM.
With `Nc1ncnc2c1c(C#Cc1c(F)cc(N3CC(O)C3)cc1F)cn2[C@@H]1O[C@H](CNS(N)(=O)=O)[C@@H](O)[C@H]1O` [Example 39, 4-Amino-5-[2-[2,6-difluoro-4-(3-hydroxyazetidin-1-yl)phenyl]ethynyl]-7-[(2R,3R,4S,5R)-3,4-dihydroxy-5-[(sulfamoylamino)methyl]tetrahydrofuran-2-yl]pyrrolo[2,3-d]pyrimidine] the IC50 (carbonic anhydrase II) was > 1 µM.
In the case of `Nc1ncnc2c1c(C#CCC1CCCCC1)cn2[C@@H]1O[C@H](CNS(N)(=O)=O)[C@@H](O)[C@H]1O` [Example 50, 4-Amino-5-(3-cyclohexylprop-1-ynyl)-7-[(2R,3R,4S,5R)-3,4-dihydroxy-5-[(sulfamoylamino)methyl]tetrahydrofuran-2-yl]pyrrolo[2,3-d]pyrimidine], the IC50 (carbonic anhydrase II) is reported as > 1 µM.
For `CCOc1cc(N2CCCCC2)cc(F)c1C#Cc1cn([C@@H]2C[C@H](CNS(N)(=O)=O)[C@@H](O)[C@H]2O)c2ncnc(N)c12` [Example 106, 4-Amino-7-[(1R,2S,3R,4R)-2,3-dihydroxy-4-[(sulfamoylamino)methyl]cyclopentyl]-5-[2-[2-ethoxy-6-fluoro-4-(1-piperidyl)phenyl]ethynyl]pyrrolo[2,3-d]pyrimidine], the IC50 [1] was 0.028 µM.
With `CCOc1cc(N2C3CCC2COC3)cc(F)c1C#Cc1cn([C@@H]2C[C@H](CNS(N)(=O)=O)[C@@H](O)[C@H]2O)c2ncnc(N)c12` [Example 110, 8-[4-[2-[4-Amino-7-[(1R,2S,3R,4R)-2,3-dihydroxy-4-[(sulfamoylamino)methyl]cyclopentyl]pyrrolo[2,3-d]pyrimidin-5-yl]ethynyl]-3-ethoxy-5-fluoro-phenyl]-3-oxa-8-azabicyclo[3,2,1]octane] the IC50 [1] was 0.013 µM.
With `CCOc1cc(N2CCOCC2)cc(F)c1C#Cc1cn([C@@H]2C[C@H](CNS(N)(=O)=O)[C@@H](O)[C@H]2O)c2ncnc(N)c12` [Example 112, 4-[4-[2-[4-Amino-7-[(1R,2S,3R,4R)-2,3-dihydroxy-4-[(sulfamoylamino)methyl]cyclopentyl]pyrrolo[2,3-d]pyrimidin-5-yl]ethynyl]-3-ethoxy-5-fluoro-phenyl]morpholine] the IC50 [1] was 0.015 µM.
For `Nc1ncnc2c1c(C#Cc1c(F)cc(N3CC[C@@H](F)C3)cc1F)cn2[C@@H]1C[C@H](CNS(N)(=O)=O)[C@@H](O)[C@H]1O` [Example 115, 4-Amino-5-[2-[2,6-difluoro-4-[(3R)-3-fluoropyrrolidin-1-yl]phenyl]ethynyl]-7-[(1R,2S,3R,4R)-2,3-dihydroxy-4-[(sulfamoylamino)methyl]cyclopentyl]pyrrolo[2,3-d]pyrimidine], the IC50 [1] was 0.004 µM.
Compound `Nc1ncnc2c1c(C#Cc1cccc3c1S(=O)(=O)CC3)cn2[C@@H]1C[C@H](CNS(N)(=O)=O)[C@@H](O)[C@H]1O` [Example 117, 4-Amino-7-[(1R,2S,3R,4R)-2,3-dihydroxy-4-[(sulfamoylamino)methyl]cyclopentyl]-5-[2-(1,1-dioxo-2,3-dihydrobenzothiophen-7-yl)ethynyl]pyrrolo[2,3-d]pyrimidine] has an IC50 [1] of 0.0043 µM.
In the case of `Nc1ncnc2c1c(C#Cc1c(F)cc(N3CCC3)cc1F)cn2[C@@H]1C[C@H](CNS(N)(=O)=O)[C@@H](O)[C@H]1O` [Example 118, 4-Amino-5-[2-[4-(azetidin-1-yl)-2,6-difluoro-phenyl]ethynyl]-7-[(1R,2S,3R,4R)-2,3-dihydroxy-4-[(sulfamoylamino)methyl]cyclopentyl]pyrrolo[2,3-d]pyrimidine], the IC50 [1] is reported as 0.0068 µM.
`Nc1ncnc2c1c(C#Cc1c(F)cc(N3CCC(O)CC3)cc1F)cn2[C@@H]1C[C@H](CNS(N)(=O)=O)[C@@H](O)[C@H]1O` [Example 119, 4-Amino-5-[2-[2,6-difluoro-4-(4-hydroxy-1-piperidyl)phenyl]ethynyl]-7-[(1R,2S,3R,4R)-2,3-dihydroxy-4-[(sulfamoylamino)methyl]cyclopentyl]pyrrolo[2,3-d]pyrimidine] gave an IC50 [1] of 0.0042 µM.
In the case of `Nc1ncnc2c1c(C#Cc1cccc3c1S(=O)(=O)CCC3)cn2[C@@H]1C[C@H](CNS(N)(=O)=O)[C@@H](O)[C@H]1O` [Example 123, 4-Amino-7-[(1R,2S,3R,4R)-2,3-dihydroxy-4-[(sulfamoylamino)methyl]cyclopentyl]-5-[2-(1,1-dioxo-3,4-dihydro-2H-thiochromen-8-yl)ethynyl]pyrrolo[2,3-d]pyrimidine], the IC50 [1] is reported as 0.0091 µM.
`CCOc1cccc(F)c1C#Cc1cn([C@H]2C[C@H](O)[C@@H](CNS(N)(=O)=O)O2)c2ncnc(N)c12` [Example 127, 4-Amino-5-[2-(2-ethoxy-6-fluoro-phenyl)ethynyl]-7-[(2R,4S,5R)-4-hydroxy-5-[(sulfamoylamino)methyl]tetrahydrofuran-2-yl]pyrrolo[2,3-d]pyrimidine] showed an IC50 [1] of 0.019 µM.
In the case of `CCOc1cccc(F)c1C#Cc1cn([C@@H]2C=C(CNS(N)(=O)=O)[C@@H](O)[C@H]2O)c2ncnc(N)c12` [Example 129, 4-Amino-7-[(1R,4R,5S)-4,5-dihydroxy-3-[(sulfamoylamino)methyl]cyclopent-2-en-1-yl]-5-[2-(2-ethoxy-6-fluoro-phenyl)ethynyl]pyrrolo[2,3-d]pyrimidine], the IC50 (carbonic anhydrase II) is reported as > 1 µM.
In the case of `CSc1cccc(F)c1C#Cc1cn([C@@H]2C=C(CNS(N)(=O)=O)[C@@H](O)[C@H]2O)c2ncnc(N)c12` [Example 130, 4-Amino-7-[(1R,4R,5S)-4,5-dihydroxy-3-[(sulfamoylamino)methyl]cyclopent-2-en-1-yl]-5-[2-(2-fluoro-6-methylsulfanyl-phenyl)ethynyl]pyrrolo[2,3-d]pyrimidine], the IC50 [1] is reported as 0.004 µM.
Compound `Nc1ncnc2c1c(C#Cc1ccccc1)cn2[C@H]1C[C@H](O)[C@@H](COS(N)(=O)=O)O1` [Example 134, [(2R,3S,5R)-5-[4-Amino-5-(2-phenylethynyl)pyrrolo[2,3-d]pyrimidin-7-yl]-3-hydroxy-tetrahydrofuran-2-yl]methyl sulfamate] has an IC50 [1] of 0.018 µM.
In the case of `Cc1ccc(Cn2cc(-c3cn([C@H]4C[C@H](O)[C@@H](COS(N)(=O)=O)O4)c4ncnc(N)c34)cn2)cc1C` [Example 137, [(2R,3S,5R)-5-[4-Amino-5-[1-[(3,4-dimethylphenyl)methyl]pyrazol-4-yl]pyrrolo[2,3-d]pyrimidin-7-yl]-3-hydroxy-tetrahydrofuran-2-yl]methyl sulfamate], the IC50 [1] is reported as 0.019 µM.
Compound `Cc1ccc(Cn2cc(-c3cn([C@@H]4C[C@H](COS(N)(=O)=O)[C@@H](O)C4)c4ncnc(N)c34)cn2)cc1C` [Example 138, [(1R,2S,4R)-4-[4-Amino-5-[1-[(3,4-dimethylphenyl)methyl]pyrazol-4-yl]pyrrolo[2,3-d]pyrimidin-7-yl]-2-hydroxy-cyclopentyl]methyl sulfamate] has an IC50 [1] of 0.0065 µM.
Work on `Cc1ccccc1-c1nc(-c2cn([C@H]3C[C@H](O)[C@@H](COS(N)(=O)=O)O3)c3ncnc(N)c23)cs1` [Example 139, [(2R,3S,5R)-5-[4-Amino-5-[2-(o-tolyl)thiazol-4-yl]pyrrolo[2,3-d]pyrimidin-7-yl]-3-hydroxy-tetrahydrofuran-2-yl]methyl sulfamate] yielded an IC50 [1] of 0.017 µM.
`CCS(=O)(=O)c1cccc(F)c1C#Cc1cn([C@@H]2C[C@H](CNS(N)(=O)=O)[C@@H](O)[C@H]2O)c2ncnc(N)c12` [Example 142, 4-Amino-7-[(1R,2S,3R,4R)-2,3-dihydroxy-4-[(sulfamoylamino)methyl]cyclopentyl]-5-[2-(2-ethylsulfonyl-6-fluoro-phenyl)ethynyl]pyrrolo[2,3-d]pyrimidine] gave an IC50 [1] of 0.009 µM.
